For the data set the following is noted: for aqueous solubility: pH 6.8.

The text below walks through data of the Biogen ADME set (Fang et al. 2023).

SMILES strings stand for the structures. In brackets after ≈: the same amount, converted by molar mass.

In the case of `CC(C)N1CCN(CCCSc2ccccn2)CC1`, the MDR1-MDCK efflux ratio is 0.74; the intrinsic clearance, human liver microsomes is 128 mL/min/kg; the intrinsic clearance, rat liver microsomes was determined as 1080 mL/min/kg.

By aqueous solubility is commonly meant how much of the substance goes into solution per volume. With `Oc1ccc(-c2noc(C3CC3)n2)cc1`, the MDR1-MDCK efflux ratio was found to be 0.674 and the aqueous solubility came out at 49 µg/mL (≈ 242 µM).

Turning to `CCn1nc(CNC(=O)c2nc(C)c[nH]2)c2ccccc21`, the MDR1-MDCK efflux ratio is 5.37; the intrinsic clearance, human liver microsomes was 11.2 mL/min/kg; the intrinsic clearance, rat liver microsomes was found to be 236 mL/min/kg.

On to `N#CC1(NC(=O)C2CCCCCC2)CC1`, for which the intrinsic clearance, human liver microsomes is no more than 4.74 mL/min/kg; the intrinsic clearance, rat liver microsomes is no more than 10.7 mL/min/kg; the aqueous solubility turned out to be 33.4 µg/mL (≈ 162 µM).

`Cc1ccc(OCC(=O)Nc2ccncc2)c(C)c1` came in with an intrinsic clearance, human liver microsomes of 52.5 mL/min/kg; an intrinsic clearance, rat liver microsomes of 508 mL/min/kg; an aqueous solubility of 47.1 µg/mL (≈ 184 µM).

As for `COc1ccc(OC[C@@H]2c3cc(OC)c(OC)cc3CCN2C(=O)c2cccc(Cl)c2)cc1`, the MDR1-MDCK efflux ratio came out at 1.25; the fraction unbound, human plasma was 0.00764; the fraction unbound, rat plasma was determined as 0.0171.

With `O=C(NCCN1CCc2ccccc2C1=O)c1ccon1`, the MDR1-MDCK efflux ratio was 1.18; the intrinsic clearance, human liver microsomes is no more than 4.74 mL/min/kg; the intrinsic clearance, rat liver microsomes turned out to be 56.3 mL/min/kg.

`Cc1ccc(-c2ccccc2-c2nc3c(cnn3C3CCN(C)CC3)[nH]2)o1`: the MDR1-MDCK efflux ratio was found to be 40.1; the intrinsic clearance, human liver microsomes is no more than 4.74 mL/min/kg; the intrinsic clearance, rat liver microsomes is 100 mL/min/kg; the aqueous solubility came out at 40.5 µg/mL (≈ 112 µM).

With `Cn1c(C(=O)N2CCN(CCc3ccccc3)C(=O)C2)cc(=O)n(C)c1=O`, the MDR1-MDCK efflux ratio was 8.33; the intrinsic clearance, human liver microsomes is no more than 4.74 mL/min/kg; the intrinsic clearance, rat liver microsomes was found to be 31.7 mL/min/kg; the aqueous solubility is 59.7 µg/mL (≈ 161 µM).

Take `CCN(CC(N)=O)CC(=O)N1c2ccccc2CCc2ccccc21`: the MDR1-MDCK efflux ratio amounted to 28.9; the intrinsic clearance, human liver microsomes stood at 40.9 mL/min/kg; the intrinsic clearance, rat liver microsomes came to 674 mL/min/kg.

Turning to `Cn1cc(-c2nnc(NCc3ccc4ccccc4c3)o2)cn1`, the MDR1-MDCK efflux ratio came to 0.701; the intrinsic clearance, human liver microsomes worked out at 7.14 mL/min/kg; the intrinsic clearance, rat liver microsomes turned out to be 46.3 mL/min/kg; the aqueous solubility amounted to 11.2 µg/mL (≈ 36.8 µM).

As to `COc1cc2nc(-c3cc(F)ccc3O)nc(N[C@@H]3CNC[C@H]3C(C)(C)O)c2cc1OC.Cl`, the fraction unbound, human plasma amounted to 0.00076 and the fraction unbound, rat plasma was found to be 0.0015.

In the case of `CCN(CC)Cc1cccc(/C=C/c2nc3ccc(F)cc3c(=O)n2-c2ccccc2Cl)n1`, the MDR1-MDCK efflux ratio was 8.43; the intrinsic clearance, human liver microsomes came to 69.4 mL/min/kg; the intrinsic clearance, rat liver microsomes was 516 mL/min/kg; the aqueous solubility was found to be 67.5 µg/mL (≈ 146 µM).

Consider `O=C(Nc1ccc(F)cc1F)N1CCn2c1nc1ccccc12`, for which the MDR1-MDCK efflux ratio worked out at 0.468; the intrinsic clearance, human liver microsomes is 78.5 mL/min/kg; the intrinsic clearance, rat liver microsomes turned out to be 90.1 mL/min/kg; the aqueous solubility stood at 6.1 µg/mL (≈ 19.4 µM).

As for `CSC1(CNc2cc(C)nc(C)n2)CCOCC1`, the MDR1-MDCK efflux ratio turned out to be 1.42; the intrinsic clearance, human liver microsomes is no more than 4.74 mL/min/kg; the intrinsic clearance, rat liver microsomes was found to be 76.1 mL/min/kg.

In the case of `COc1cc(CN2CCCNCC2)cc2c1OCO2`, the MDR1-MDCK efflux ratio turned out to be 8.38; the intrinsic clearance, human liver microsomes is 5.17 mL/min/kg; the intrinsic clearance, rat liver microsomes worked out at 72.9 mL/min/kg.

`CC(C)c1ccc(NC(=O)Cn2cnc3c2c(=O)n(C)c(=O)n3C)cc1` displayed an intrinsic clearance, human liver microsomes of 16.1 mL/min/kg; an intrinsic clearance, rat liver microsomes of 195 mL/min/kg; an aqueous solubility of 12.7 µg/mL (≈ 35.7 µM).

In the case of `CCCCOc1ccc(-c2cc3c(=O)[nH]ccn3n2)cc1`, the MDR1-MDCK efflux ratio worked out at 0.743 and the aqueous solubility came out at 0.2 µg/mL (≈ 0.706 µM).

As for `CC1(C)COCCN1Cc1cnn(-c2ccccc2)n1`, the MDR1-MDCK efflux ratio is 0.545; the intrinsic clearance, human liver microsomes came out at 10.7 mL/min/kg; the intrinsic clearance, rat liver microsomes came to 1070 mL/min/kg; the aqueous solubility worked out at 14.7 µg/mL (≈ 54.1 µM).

Regarding `CCOCC(=O)NCc1cc(C2CC2)n(C2CCCC2)n1`, the MDR1-MDCK efflux ratio is 0.768; the intrinsic clearance, human liver microsomes came to 21.9 mL/min/kg; the intrinsic clearance, rat liver microsomes amounted to 264 mL/min/kg; the aqueous solubility came to 37.9 µg/mL (≈ 130 µM).

Consider `O=C(NCc1nncn1-c1ccccc1)C1CCCC1`, for which the MDR1-MDCK efflux ratio came to 20.8; the intrinsic clearance, human liver microsomes was no more than 4.74 mL/min/kg; the intrinsic clearance, rat liver microsomes is 12.2 mL/min/kg; the aqueous solubility was determined as 43.3 µg/mL (≈ 160 µM).

With `CON(C)C(=O)CCc1c(C)nn(C)c1C`, the MDR1-MDCK efflux ratio turned out to be 1.33; the intrinsic clearance, human liver microsomes was no more than 4.74 mL/min/kg; the intrinsic clearance, rat liver microsomes was 28.3 mL/min/kg; the aqueous solubility was determined as 34.2 µg/mL (≈ 152 µM).

The compound `Cc1noc(C2CCN(CC(N)=O)CC2)n1` showed an intrinsic clearance, human liver microsomes of 9.99 mL/min/kg; an intrinsic clearance, rat liver microsomes of 29.7 mL/min/kg; an aqueous solubility of 30.8 µg/mL (≈ 137 µM).

Turning to `O=C1CCCN1c1ccc(NCc2ccccn2)nc1`, the MDR1-MDCK efflux ratio is 1.31; the intrinsic clearance, human liver microsomes is no more than 4.74 mL/min/kg; the intrinsic clearance, rat liver microsomes was no more than 10.7 mL/min/kg; the aqueous solubility turned out to be 54.4 µg/mL (≈ 203 µM).

`COc1ccnc(N2CCCN(Cc3ccccc3C)CC2)n1` came in with an intrinsic clearance, human liver microsomes of 756 mL/min/kg and an intrinsic clearance, rat liver microsomes of 2350 mL/min/kg.

With `Cc1ncc(C(=O)Nc2ncnc3oc(C)c(C)c23)s1`, the MDR1-MDCK efflux ratio is 0.422; the intrinsic clearance, human liver microsomes was 26.3 mL/min/kg; the intrinsic clearance, rat liver microsomes was found to be 160 mL/min/kg; the aqueous solubility was 53.2 µg/mL (≈ 185 µM).

For the compound `CN(C)c1ccc(Cn2c(=O)[nH]c3ccccc3c2=O)cn1`, the MDR1-MDCK efflux ratio amounted to 4.71; the intrinsic clearance, human liver microsomes stood at 9.13 mL/min/kg; the intrinsic clearance, rat liver microsomes is 368 mL/min/kg; the aqueous solubility turned out to be 2.6 µg/mL (≈ 8.77 µM).

Consider `CCOC(=S)SCC(=O)Nc1nc(-c2ccc(C3CCCCC3)cc2)cs1`, for which the MDR1-MDCK efflux ratio is 0.229; the intrinsic clearance, human liver microsomes was determined as 267 mL/min/kg; the intrinsic clearance, rat liver microsomes was found to be 1390 mL/min/kg; the aqueous solubility came to 2.18 µg/mL (≈ 5.18 µM).

`COc1cc(C(C)C)c2c(c1)S(=O)(=O)N(COc1cc(=O)n3cccc(OCCN4CCCCC4)c3n1)C2=O`: the MDR1-MDCK efflux ratio is 91.5; the intrinsic clearance, human liver microsomes was found to be 162 mL/min/kg; the intrinsic clearance, rat liver microsomes is 250 mL/min/kg; the aqueous solubility came out at 53.4 µg/mL (≈ 95.9 µM).

In the case of `N#Cc1ccnc(Nc2cc(C3CCN(C4COC4)CC3)cc(N3CCC(F)(F)C3)n2)c1`, the MDR1-MDCK efflux ratio turned out to be 1.85 and the aqueous solubility worked out at 0.71 µg/mL (≈ 1.61 µM).

`O=C(NCc1nnc2c(O)nccn12)C1CCCC1`: the MDR1-MDCK efflux ratio was 1.22; the intrinsic clearance, human liver microsomes is no more than 4.74 mL/min/kg; the intrinsic clearance, rat liver microsomes is no more than 10.7 mL/min/kg; the aqueous solubility amounted to 41.8 µg/mL (≈ 160 µM).

In the case of `O=C(/C=C\n1cnc(-c2cc(C(F)(F)F)cc(C(F)(F)F)c2)n1)NNc1ccccn1`, the MDR1-MDCK efflux ratio is 1.08; the intrinsic clearance, human liver microsomes was determined as 13.9 mL/min/kg; the intrinsic clearance, rat liver microsomes was 52.4 mL/min/kg.

With `Cc1noc(C)c1CS(=O)(=O)C1CCCc2ccccc21` (configuration not stated), the MDR1-MDCK efflux ratio was found to be 0.953; the intrinsic clearance, human liver microsomes came out at 192 mL/min/kg; the intrinsic clearance, rat liver microsomes came out at 1400 mL/min/kg.

For `O=C1N=C2C=CC=CN2C12Cc1ccccc1C2`, the MDR1-MDCK efflux ratio came to 4.09; the intrinsic clearance, human liver microsomes was no more than 4.74 mL/min/kg; the intrinsic clearance, rat liver microsomes was no more than 10.7 mL/min/kg; the aqueous solubility came to 37.4 µg/mL (≈ 158 µM).

As to `Fc1cc(-c2ccncc2)ccc1CNc1ncccn1`, the MDR1-MDCK efflux ratio was determined as 0.843; the intrinsic clearance, human liver microsomes turned out to be 24.4 mL/min/kg; the intrinsic clearance, rat liver microsomes is 238 mL/min/kg.

Take `Brc1cc2c(cc1Cn1cncn1)OCCCO2`: the MDR1-MDCK efflux ratio is 0.566; the intrinsic clearance, human liver microsomes was found to be 7.7 mL/min/kg; the intrinsic clearance, rat liver microsomes came out at 228 mL/min/kg; the aqueous solubility came to 34.4 µg/mL (≈ 111 µM).

Turning to `COc1ccc2nc3c(cc2c1)CNCCO3`, the MDR1-MDCK efflux ratio turned out to be 0.504; the intrinsic clearance, human liver microsomes is 18.1 mL/min/kg; the intrinsic clearance, rat liver microsomes was 82.4 mL/min/kg.

In turn, `COc1ccc(CNC(=O)CCSc2nc3c(=O)n(C)c(=O)n(C)c3n2C)cc1` displayed an intrinsic clearance, human liver microsomes of 52 mL/min/kg and an intrinsic clearance, rat liver microsomes of 247 mL/min/kg.

Take `COc1cc(C)nc(N2CCN(c3ccc4ccccc4n3)CC2)n1`: the intrinsic clearance, human liver microsomes worked out at 36.2 mL/min/kg and the intrinsic clearance, rat liver microsomes came to 643 mL/min/kg.

For the compound `Cn1c(=O)cc(N2CCC[C@@H](N)C2)n(Cc2cc(F)ccc2C#N)c1=O`, the intrinsic clearance, human liver microsomes is no more than 4.74 mL/min/kg and the intrinsic clearance, rat liver microsomes is no more than 10.7 mL/min/kg.

`Cc1cnn(Cc2nc(Cn3cccn3)no2)c1`: the MDR1-MDCK efflux ratio turned out to be 0.771; the intrinsic clearance, human liver microsomes was no more than 4.74 mL/min/kg; the intrinsic clearance, rat liver microsomes is no more than 10.7 mL/min/kg; the aqueous solubility worked out at 36 µg/mL (≈ 147 µM).

`O=C(Nc1nc2c(s1)COc1ccccc1-2)c1cnc(Cl)c(Cl)c1`: the MDR1-MDCK efflux ratio was 1.02; the intrinsic clearance, human liver microsomes came to 33.8 mL/min/kg; the intrinsic clearance, rat liver microsomes was determined as 279 mL/min/kg; the aqueous solubility is 3.7 µg/mL (≈ 9.78 µM).

As for `O=C(c1ccc(F)c(F)c1)N1CCN(C(=O)c2nc(Cl)ccc2Cl)CC1`, the MDR1-MDCK efflux ratio turned out to be 4.42; the intrinsic clearance, human liver microsomes is no more than 4.74 mL/min/kg; the intrinsic clearance, rat liver microsomes was found to be 23.3 mL/min/kg; the aqueous solubility came to 61.7 µg/mL (≈ 154 µM).

For the compound `CCSCc1nc(N)c2ccccc2n1`, the MDR1-MDCK efflux ratio is 0.681; the intrinsic clearance, human liver microsomes was 30.3 mL/min/kg; the intrinsic clearance, rat liver microsomes turned out to be 121 mL/min/kg; the aqueous solubility is 30.4 µg/mL (≈ 139 µM).

Turning to `COc1ccc(-c2csc3ncnc(Oc4ccc(C)nc4)c23)cc1`, the MDR1-MDCK efflux ratio stood at 0.595; the intrinsic clearance, human liver microsomes was determined as 78.5 mL/min/kg; the intrinsic clearance, rat liver microsomes turned out to be 320 mL/min/kg; the aqueous solubility was found to be 7.81 µg/mL (≈ 22.4 µM).

Consider `NCC1CCCC1NC(=O)c1cc(N2CCNC2=O)ccc1F` (configuration not stated), for which the MDR1-MDCK efflux ratio stood at 1.92; the fraction unbound, human plasma amounted to 0.75; the intrinsic clearance, human liver microsomes was no more than 4.74 mL/min/kg.
